Assay results taken from ChEMBL document CHEMBL1144577, “1,5-Biaryl pyrrole derivatives as EP1 receptor antagonists. Structure-activity relationships of 6-substituted and 5,6-disubstituted benzoic acid derivatives” (Bioorg Med Chem Lett, 2007).
Blank lines part the entries; values can stand above or below the compound they belong to.

Tests used:
[1] = target: T1, Prostaglandin E2 receptor EP1 subtype (Homo sapiens, UniProt P34995); test: Displacement of [3H]PGE2 from human recombinant EP1 receptor expressed in CHOK1 cell membrane; type: cell membranes, CHO-K1
T1 sequence (P34995 whole entry): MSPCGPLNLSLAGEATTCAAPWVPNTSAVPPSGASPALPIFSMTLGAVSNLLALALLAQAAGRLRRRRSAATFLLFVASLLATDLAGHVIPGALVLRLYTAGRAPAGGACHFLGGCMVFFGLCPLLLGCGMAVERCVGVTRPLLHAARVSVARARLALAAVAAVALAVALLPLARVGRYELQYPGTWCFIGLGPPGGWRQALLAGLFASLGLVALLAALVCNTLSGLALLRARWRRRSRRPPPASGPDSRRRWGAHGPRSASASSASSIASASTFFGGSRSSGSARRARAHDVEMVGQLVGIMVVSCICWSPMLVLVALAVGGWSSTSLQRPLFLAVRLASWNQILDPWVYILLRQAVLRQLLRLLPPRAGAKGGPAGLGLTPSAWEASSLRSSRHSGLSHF

[2] = Cmax in rat at 3 mg/kg, po; type: ADME, organism-based; design: dose 3 mg/kg, route oral; details: in vivo
Rattus norvegicus [3] = test: Normalized AUC (0 to t) in rat at 3 mg/kg, po; type: ADME, organism-based; design: dose 3 mg/kg, route oral; details: in vivo
[4] = Tmax in rat at 3 mg/kg, po; type: ADME, organism-based; design: dose 3 mg/kg, route oral; details: in vivo
Rattus norvegicus [5] = test: Reversal of hypersensitivity in FCA rat model of inflammatory pain at 5 mg/kg, po; type: functional
Rattus norvegicus [6] = test: Reversal of hypersensitivity in po dosed FCA rat model of inflammatory pain; type: functional
[7] = Intrinsic clearance in monkey liver microsomes; type: ADME, Macaca mulatta, Microsome; details: rhesus monkey
[8] = target: T2, Prostaglandin E2 receptor EP4 subtype (Homo sapiens, UniProt P35408); test: Binding affinity to human EP4 receptor expressed in CHO cells; type: cell-based
T2 sequence (P35408 whole entry): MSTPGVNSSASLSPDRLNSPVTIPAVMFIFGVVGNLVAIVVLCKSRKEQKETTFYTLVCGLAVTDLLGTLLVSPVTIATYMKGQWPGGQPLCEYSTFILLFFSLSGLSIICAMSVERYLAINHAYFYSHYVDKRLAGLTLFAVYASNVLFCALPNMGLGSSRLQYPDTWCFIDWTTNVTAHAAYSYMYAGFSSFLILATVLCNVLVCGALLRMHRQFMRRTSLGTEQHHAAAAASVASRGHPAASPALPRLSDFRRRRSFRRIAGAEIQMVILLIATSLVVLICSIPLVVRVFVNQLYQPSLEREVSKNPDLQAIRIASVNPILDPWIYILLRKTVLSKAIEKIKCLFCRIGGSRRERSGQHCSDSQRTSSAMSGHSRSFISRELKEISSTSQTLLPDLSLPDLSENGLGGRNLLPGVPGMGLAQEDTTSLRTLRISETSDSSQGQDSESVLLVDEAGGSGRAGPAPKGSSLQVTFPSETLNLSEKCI

[9] = Ratio of drug level in brain to blood in rat FCA model of inflammatory pain at 30 mg/kg, po after 1 hr; type: ADME, organism-based; design: dose 30 mg/kg, route oral; details: brain and blood
[10] = Drug level in blood of rat FCA model of inflammatory pain at 30 mg/kg, po after 6 hrs; type: ADME, organism-based; design: dose 30 mg/kg, route oral; details: read-out: Drug uptake
[11] = Bioavailability in rat at 3 mg/kg, po; type: ADME, organism-based; details: in vivo
[12] = Drug level in brain of rat FCA model of inflammatory pain at 30 mg/kg, po after 8 hrs; type: ADME, organism-based; design: dose 30 mg/kg, route oral; details: read-out: Drug uptake
[13] = target: T3, Prostaglandin E2 receptor EP3 subtype (Homo sapiens, UniProt P43115); test: Inhibition of human recombinant EP3 receptor expressed in CHO cells by calcium mobilisation assay; type: functional, cell-based
T3 sequence (P43115 whole entry): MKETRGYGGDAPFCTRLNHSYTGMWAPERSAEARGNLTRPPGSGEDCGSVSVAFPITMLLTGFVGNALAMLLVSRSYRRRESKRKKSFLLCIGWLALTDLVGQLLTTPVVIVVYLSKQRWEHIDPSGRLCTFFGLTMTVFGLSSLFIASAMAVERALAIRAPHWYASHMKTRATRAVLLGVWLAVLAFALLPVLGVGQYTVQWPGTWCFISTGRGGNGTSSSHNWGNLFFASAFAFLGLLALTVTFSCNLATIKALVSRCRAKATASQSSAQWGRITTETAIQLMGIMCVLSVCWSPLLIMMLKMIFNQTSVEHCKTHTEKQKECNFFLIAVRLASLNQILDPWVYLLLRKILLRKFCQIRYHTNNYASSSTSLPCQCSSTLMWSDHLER

[14] = Ratio of drug level in brain to blood in rat FCA model of inflammatory pain at 30 mg/kg, po after 8 hrs; type: ADME, organism-based; design: dose 30 mg/kg, route oral; details: brain and blood
[15] = Intrinsic clearance in dog liver microsomes; type: ADME, Canis lupus familiaris, Microsome
[16] = target: Prostaglandin E2 receptor EP2 subtype (Homo sapiens, UniProt P43116); test: Inhibition of human recombinant EP2 receptor expressed in CHO cells […] by calcium mobilisation assay; type: functional, cell-based
Sequence of Prostaglandin E2 receptor EP2 subtype (P43116 whole entry): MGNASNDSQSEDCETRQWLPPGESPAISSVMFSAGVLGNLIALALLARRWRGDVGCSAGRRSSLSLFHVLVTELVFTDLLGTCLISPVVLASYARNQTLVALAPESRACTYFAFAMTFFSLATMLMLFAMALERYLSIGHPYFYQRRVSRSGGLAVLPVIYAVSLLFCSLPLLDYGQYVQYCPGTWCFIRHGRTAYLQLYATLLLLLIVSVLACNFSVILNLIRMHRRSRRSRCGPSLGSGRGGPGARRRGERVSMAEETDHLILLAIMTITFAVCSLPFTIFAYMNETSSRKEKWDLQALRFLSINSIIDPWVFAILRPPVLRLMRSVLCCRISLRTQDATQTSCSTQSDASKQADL

[17] = Volume of distribution in rat at 1 mg/kg, iv or 3 mg/kg, po; type: ADME, organism-based; details: in vivo, read-out: Vss
[18] = Half life in rat at 1 mg/kg, iv or 3 mg/kg, po; type: ADME, organism-based; details: in vivo
[19] = Drug level in brain of rat FCA model of inflammatory pain at 30 mg/kg, po after 0.25 hrs; type: ADME, organism-based; design: dose 30 mg/kg, route oral; details: read-out: Drug uptake
[20] = target: T2, Prostaglandin E2 receptor EP4 subtype; test: Inhibition of human EP4 recombinant receptor expressed in CHO cells by cAMP mobilisation assay; type: functional, cell-based
[21] = Drug level in blood of rat FCA model of inflammatory pain at 30 mg/kg, po after 4 hrs; type: ADME, organism-based; design: dose 30 mg/kg, route oral; details: read-out: Drug uptake
[22] = Ratio of drug level in brain to blood in rat FCA model of inflammatory pain at 30 mg/kg, po after 2 hrs; type: ADME, organism-based; design: dose 30 mg/kg, route oral; details: brain and blood
[23] = target: T1, Prostaglandin E2 receptor EP1 subtype; test: Inhibition of human recombinant EP1 receptor expressed in CHO cells by calcium mobilisation assay; type: functional, cell-based
[24] = Drug level in brain of rat FCA model of inflammatory pain at 30 mg/kg, po after 2 hrs; type: ADME, organism-based; design: dose 30 mg/kg, route oral; details: read-out: Drug uptake
[25] = Ratio of drug level in brain to blood in rat FCA model of inflammatory pain at 30 mg/kg, po after 24 hrs; type: ADME, organism-based; design: dose 30 mg/kg, route oral; details: brain and blood
[26] = Ratio of drug level in brain to blood in rat FCA model of inflammatory pain at 30 mg/kg, po after 4 hrs; type: ADME, organism-based; design: dose 30 mg/kg, route oral; details: brain and blood
[27] = Blood clearance in rat at 1 mg/kg, iv or 3 mg/kg, po; type: ADME, organism-based
[28] = Drug level in blood of rat FCA model of inflammatory pain at 30 mg/kg, po after 8 hrs; type: ADME, organism-based; design: dose 30 mg/kg, route oral; details: read-out: Drug uptake
[29] = Drug level in brain of rat FCA model of inflammatory pain at 30 mg/kg, po after 24 hrs; type: ADME, organism-based; design: dose 30 mg/kg, route oral; details: read-out: Drug uptake
[30] = Ratio of drug level in brain to blood in rat FCA model of inflammatory pain at 30 mg/kg, po after 0.25 hrs; type: ADME, organism-based; design: dose 30 mg/kg, route oral; details: brain and blood
[31] = Drug level in blood of rat FCA model of inflammatory pain at 30 mg/kg, po after 1 hr; type: ADME, organism-based; design: dose 30 mg/kg, route oral; details: read-out: Drug uptake
[32] = Ratio of drug level in brain to blood in rat FCA model of inflammatory pain at 30 mg/kg, po after 6 hrs; type: ADME, organism-based; design: dose 30 mg/kg, route oral; details: brain and blood
Thromboxane A2 receptor = target: T4, Thromboxane A2 receptor (Homo sapiens, UniProt P21731); test: Inhibition of human recombinant TP receptor expressed in CHO cells by calcium mobilisation assay; type: functional, cell-based
T4 sequence (P21731 whole entry): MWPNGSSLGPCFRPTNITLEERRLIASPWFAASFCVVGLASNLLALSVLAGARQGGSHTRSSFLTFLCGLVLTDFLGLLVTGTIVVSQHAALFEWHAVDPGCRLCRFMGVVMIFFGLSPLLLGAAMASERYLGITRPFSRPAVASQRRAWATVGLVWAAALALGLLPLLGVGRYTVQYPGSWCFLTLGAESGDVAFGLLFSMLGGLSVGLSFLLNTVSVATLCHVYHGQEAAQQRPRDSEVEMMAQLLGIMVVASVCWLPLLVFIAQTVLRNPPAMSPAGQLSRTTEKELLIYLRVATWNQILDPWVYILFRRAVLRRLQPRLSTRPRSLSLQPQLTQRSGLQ

[33] = Drug level in blood of rat FCA model of inflammatory pain at 30 mg/kg, po after 2 hrs; type: ADME, organism-based; design: dose 30 mg/kg, route oral; details: read-out: Drug uptake
[34] = Drug level in brain of rat FCA model of inflammatory pain at 30 mg/kg, po after 6 hrs; type: ADME, organism-based; design: dose 30 mg/kg, route oral; details: read-out: Drug uptake
Prostacyclin receptor = Prostacyclin receptor (Homo sapiens, UniProt P43119); test: Inhibition of human recombinant IP receptor expressed in CHO cells […] by calcium mobilisation assay; type: functional, cell-based
Sequence of Prostacyclin receptor (P43119 whole entry): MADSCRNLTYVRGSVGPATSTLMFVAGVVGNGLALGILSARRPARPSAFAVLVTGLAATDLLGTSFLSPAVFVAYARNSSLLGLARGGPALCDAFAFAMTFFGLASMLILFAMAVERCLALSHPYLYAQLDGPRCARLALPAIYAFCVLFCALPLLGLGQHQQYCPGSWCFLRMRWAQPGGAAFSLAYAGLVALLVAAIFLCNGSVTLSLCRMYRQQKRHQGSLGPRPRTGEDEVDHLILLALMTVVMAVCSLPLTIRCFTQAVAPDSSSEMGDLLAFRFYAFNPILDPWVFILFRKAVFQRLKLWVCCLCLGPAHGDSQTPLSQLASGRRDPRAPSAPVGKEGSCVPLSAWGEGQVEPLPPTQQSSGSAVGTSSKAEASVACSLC

[35] = target: Prostaglandin F2-alpha receptor (Homo sapiens, UniProt P43088); test: Inhibition of human recombinant FP receptor expressed in CHO cells by calcium mobilisation assay; type: functional, cell-based
Sequence of Prostaglandin F2-alpha receptor (P43088 whole entry): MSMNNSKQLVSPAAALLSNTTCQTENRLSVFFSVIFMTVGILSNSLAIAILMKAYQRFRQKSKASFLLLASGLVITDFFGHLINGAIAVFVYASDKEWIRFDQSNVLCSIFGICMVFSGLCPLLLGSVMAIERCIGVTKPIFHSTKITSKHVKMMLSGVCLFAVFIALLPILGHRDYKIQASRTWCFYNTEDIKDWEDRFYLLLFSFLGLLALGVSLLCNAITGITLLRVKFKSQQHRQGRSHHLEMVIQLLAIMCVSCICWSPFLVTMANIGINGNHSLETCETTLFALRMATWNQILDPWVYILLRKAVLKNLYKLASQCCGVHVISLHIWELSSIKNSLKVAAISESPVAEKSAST

[36] = Drug level in brain of rat FCA model of inflammatory pain at 30 mg/kg, po after 4 hrs; type: ADME, organism-based; design: dose 30 mg/kg, route oral; details: read-out: Drug uptake
Liver microsomes = test: Intrinsic clearance in human liver microsomes; type: ADME, Microsome
[37] = Drug level in brain of rat FCA model of inflammatory pain at 30 mg/kg, po after 1 hr; type: ADME, organism-based; design: dose 30 mg/kg, route oral; details: read-out: Drug uptake
[38] = Drug level in blood of rat FCA model of inflammatory pain at 30 mg/kg, po after 0.25 hrs; type: ADME, organism-based; design: dose 30 mg/kg, route oral; details: read-out: Drug uptake

SMILES: Cc1ccc(-c2cc(F)ccc2OCc2ccc(F)cc2)n1-c1cc(C(=O)O)c2ccccc2c1
IC50 [1]: 0.0251 µM

SMILES: Cc1ccc(-c2cc(Br)ccc2OCc2ccc(F)cc2F)n1-c1ccc(OC(F)F)c(C(=O)O)c1
IC50 [1]: 0.000631 µM

SMILES: Cc1ccc(-n2c(C)ccc2-c2cc(Cl)ccc2OCc2ccc(F)cc2)cc1C(=O)O
ED50 (Rattus norvegicus [6]): 2.5 mg/kg
IC50 [1]: 0.00501 µM
CL [7]: <= 3.6 ml/min/g
IC50 [8]: 15.8 µM
Ki [8]: 7.94 µM
Cmax [2]: 0.59 µM
Kp at 1 h [9]: 0.4
concentration at 6 h [10]: 2.31 µM
bioavailability [11]: 45%
concentration at 8 h [12]: 0.753 µM
Ki [13]: 0.501 µM
Kp at 8 h [14]: 0.4
AUC/dose (Rattus norvegicus [3]): 18 kg·min/L
CL [15]: <= 3.6 ml/min/g
IC50 [16]: > 3.16 µM
Vd [17]: 2.6 L/kg
half-life [18]: 276 min
concentration at 0.25 h [19]: 2.6 µM
Ki [20]: 6.31 µM
concentration at 4 h [21]: 3.56 µM
Kp at 2 h [22]: 0.4
Ki [23]: 0.001 µM
concentration at 2 h [24]: 2.48 µM
Kp at 24 h [25]: 0.5
Kp at 4 h [26]: 0.4
clearance [27]: 1.32 L/h/kg
Tmax [4]: 30 min
concentration at 8 h [28]: 1.6 µM
concentration at 24 h [29]: 0.031 µM
Kp at 0.25 h [30]: 0.4
concentration at 1 h [31]: 10.1 µM
Kp at 6 h [32]: 0.4
IC50 (Thromboxane A2 receptor): 0.0398 µM
Ki (Thromboxane A2 receptor): 0.0158 µM
concentration at 2 h [33]: 5.93 µM
concentration at 6 h [34]: 0.913 µM
IC50 (Prostacyclin receptor): > 3.16 µM
IC50 [35]: > 3.16 µM
concentration at 4 h [36]: 1.22 µM
Activity (Rattus norvegicus [5]): 75%
CL (Liver microsomes): <= 3.6 ml/min/g
concentration at 1 h [37]: 3.56 µM
concentration at 0.25 h [38]: 7.36 µM

SMILES: Cc1c(N)cc(-n2c(C)ccc2-c2cc(C(F)(F)F)ccc2OCc2ccccc2)cc1C(=O)O
IC50 [1]: 0.00398 µM
Cmax [2]: 0.91 µM
AUC/dose (Rattus norvegicus [3]): 31 kg·min/L
Tmax [4]: 30 min
Activity (Rattus norvegicus [5]): 40%

SMILES: Cc1ccc(OCc2ccc(F)cc2)c(-c2ccc(C)n2-c2cc(N)c(C)c(C(=O)O)c2)c1
IC50 [1]: 0.0158 µM

More lines, main results first:

IC50 [1]: 0.000398 µM
SMILES: CC(=O)Nc1ccc(-n2c(C)ccc2-c2cc(Br)ccc2OCc2ccc(F)cc2F)cc1C(=O)O

IC50 [1]: 0.000794 µM
Cmax [2]: 1.35 µM
AUC/dose (Rattus norvegicus [3]): 52 kg·min/L
Tmax [4]: 66 min
SMILES: Cc1c(N)cc(-n2c(C)ccc2-c2cc(Br)ccc2OCc2ccc(F)cc2)cc1C(=O)O
Activity (Rattus norvegicus [5]): 50%
